According to PubChem BioAssay (NCI):
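Following 48 hours of exposure in 96-well plates, responses at five concentrations were used to interpolate endpoints linearly. GI50 marks 50% less growth. TGI is the concentration that stops growth completely.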

Columns and labels:
Assay in all cases: NCI tumour cell line growth inhibition, 48 h
[1] = tested on: IGROV1 ovarian
[2] = tested on: OVCAR-8 ovarian
[3] = tested on: M14 melanoma
[4] = tested on: SNB-19 CNS
[5] = tested on: NCI-H460 lung
[6] = tested on: MDA-MB-231 breast
[7] = tested on: SK-MEL-2 melanoma
[8] = tested on: NCI-H522 lung
[9] = tested on: 786-0 renal
[10] = tested on: K-562 leukemia
[11] = tested on: CAKI-1 renal
[12] = tested on: UO-31 renal
[13] = tested on: MOLT-4 leukemia
[14] = tested on: OVCAR-3 ovarian
[15] = tested on: HS 578T breast
[16] = tested on: RPMI-8226 leukemia
[17] = tested on: KM12 colon
[18] = tested on: TK-10 renal
[19] = tested on: NCI-H226 lung
[20] = tested on: HCT-15 colon
[21] = tested on: COLO 205 colon
[22] = tested on: A549 NSCLC
[23] = tested on: SK-OV-3 ovarian
[24] = tested on: SF-539 CNS
[25] = tested on: SR leukemia
[26] = tested on: OVCAR-4 ovarian
[27] = tested on: SW-620 colon
[28] = tested on: U251 CNS
[29] = tested on: OVCAR-5 ovarian
[30] = tested on: SF-295 CNS
[31] = tested on: NCI-H23 lung
[32] = tested on: MALME-3M melanoma
[33] = tested on: UACC-257 melanoma
[34] = tested on: HOP-62 NSCLC
[35] = tested on: SN12C renal
[36] = tested on: EKVX NSCLC
[37] = tested on: SK-MEL-28 melanoma
[38] = tested on: LOX IMVI melanoma
[39] = tested on: A498 renal
[40] = tested on: SK-MEL-5 melanoma
[41] = tested on: SF-268 CNS
[42] = tested on: MDA-MB-435
[43] = tested on: DU-145 prostate
[44] = tested on: SNB-75 CNS
[45] = tested on: CCRF-CEM leukemia
[46] = tested on: HT29 colon
[47] = tested on: HL-60(TB) leukemia
[48] = tested on: MCF7 breast
[49] = tested on: BT-549 breast
[50] = tested on: T-47D breast
[51] = tested on: NCI/ADR-RES ovarian
[52] = tested on: HCC-2998 colon
[53] = tested on: UACC-62 melanoma
[54] = tested on: HCT-116 colon
[55] = tested on: RXF 393 renal
[56] = tested on: ACHN renal
[57] = tested on: HOP-92 NSCLC

## COc1ccc(CN2CCc3c(Cl)nc(N)nc3C2=O)c(OC)c1
[1]
  GI50: 7.56 µM
  TGI: 26.9 µM
[2]
  GI50: 26.9 µM
  TGI: > 100 µM
[3]
  GI50: 13.8 µM
  TGI: 28.1 µM
[4]
  GI50: 15.8 µM
  TGI: 33.3 µM
[5]
  GI50: 18.6 µM
  TGI: 42.6 µM
[6]
  GI50: 14.8 µM
  TGI: 30.3 µM
[7]
  GI50: 16.6 µM
  TGI: 34.8 µM
[8]
  GI50: 12.7 µM
  TGI: 30.9 µM
[9]
  GI50: 23.9 µM
  TGI: 48.1 µM
[10]
  GI50: 2.46 µM
  TGI: 37.7 µM
[11]
  GI50: 43.6 µM
  TGI: > 100 µM
[12]
  GI50: 14 µM
  TGI: 43.8 µM
[13]
  GI50: 2.46 µM
  TGI: 34.6 µM
[14]
  GI50: 15.4 µM
  TGI: 29.8 µM
[15]
  GI50: 19.2 µM
  TGI: 50.5 µM
[16]
  GI50: 16 µM
  TGI: 52.7 µM
[17]
  GI50: 14.4 µM
  TGI: 28.4 µM
[18]
  GI50: 33.1 µM
  TGI: 99.3 µM
[19]
  GI50: 18.3 µM
  TGI: 41.7 µM
[20]
  GI50: 10.4 µM
  TGI: 24.3 µM
[21]
  GI50: 16.3 µM
  TGI: 30.6 µM
[22]
  GI50: 47.2 µM
  TGI: > 100 µM
[23]
  GI50: 24.2 µM
  TGI: 88 µM
[24]
  GI50: 15.8 µM
  TGI: 31.7 µM
[25]
  GI50: 1.03 µM
  TGI: 10.7 µM
[26]
  GI50: 12.6 µM
  TGI: 25.6 µM
[27]
  GI50: 13.6 µM
  TGI: 28.1 µM
[28]
  GI50: 14.6 µM
  TGI: 27.9 µM
[29]
  GI50: 21.1 µM
  TGI: 46.7 µM
[30]
  GI50: 40.3 µM
  TGI: > 100 µM
[31]
  GI50: 15.8 µM
  TGI: 32.2 µM
[32]
  GI50: 15.8 µM
  TGI: 44.2 µM
[33]
  GI50: 19.3 µM
  TGI: 49.1 µM
[34]
  GI50: 25.7 µM
  TGI: 63.9 µM
[35]
  GI50: 14.9 µM
  TGI: 31.5 µM
[36]
  GI50: 16.8 µM
  TGI: 61.7 µM
[37]
  GI50: 15.7 µM
  TGI: 29.4 µM
[38]
  GI50: 13.2 µM
  TGI: 26.7 µM
[39]
  GI50: 23.7 µM
  TGI: 81.5 µM
[40]
  GI50: 13.5 µM
  TGI: 26.7 µM
[41]
  GI50: 13.6 µM
  TGI: 27.3 µM
[42]
  GI50: 16.4 µM
  TGI: 39.5 µM
[43]
  GI50: 18.2 µM
  TGI: 40.3 µM
[44]
  GI50: 14.4 µM
  TGI: 32.7 µM
[45]
  GI50: 17 µM
  TGI: 56.6 µM
[46]
  GI50: 15.2 µM
  TGI: 29.1 µM
[47]
  GI50: 1.67 µM
  TGI: 5.52 µM
[48]
  GI50: 15.7 µM
  TGI: 61.3 µM
[49]
  GI50: 16.8 µM
  TGI: 42.2 µM
[50]
  GI50: 11 µM
  TGI: 39.8 µM
[51]
  GI50: 27.2 µM
  TGI: 87 µM
[52]
  GI50: 17.3 µM
  TGI: 31.6 µM
[53]
  GI50: 13.5 µM
  TGI: 27.6 µM
[54]
  GI50: 16.1 µM
  TGI: 29.9 µM
[55]
  GI50: 22.7 µM
  TGI: 52.9 µM
[56]
  GI50: 20.4 µM
  TGI: 48.5 µM
[57]
  GI50: 14.5 µM
  TGI: 36 µM
